# Source: publication PMC7142710, “Identification of a Key Enzyme for the Hydrolysis of β-(1→3)-Xylosyl Linkage in Red Alga Dulse Xylooligosaccharide from Bifidobacterium Adolescentis” (Marine Drugs, 2020)
# Tests used:
# Assay in all cases: HPLC-RI of hydrolysis products
# Format in all cases: biochemical
# BAD0423 = target: T1, BAD0423 (Bifidobacterium adolescentis, UniProt A1A0H1); conditions: 10 mM substrate, 50 μg/mL enzyme, 20 mM sodium phosphate pH 6.5, 37 °C, 1 h; products xylose and xylobiose
# T1 construct: gene BAD_0423; full length, N-terminal His-tag (pET28a), no signal peptide, E. coli BL21(DE3), TALON purified
# T1 sequence (A1A0H1 1-564): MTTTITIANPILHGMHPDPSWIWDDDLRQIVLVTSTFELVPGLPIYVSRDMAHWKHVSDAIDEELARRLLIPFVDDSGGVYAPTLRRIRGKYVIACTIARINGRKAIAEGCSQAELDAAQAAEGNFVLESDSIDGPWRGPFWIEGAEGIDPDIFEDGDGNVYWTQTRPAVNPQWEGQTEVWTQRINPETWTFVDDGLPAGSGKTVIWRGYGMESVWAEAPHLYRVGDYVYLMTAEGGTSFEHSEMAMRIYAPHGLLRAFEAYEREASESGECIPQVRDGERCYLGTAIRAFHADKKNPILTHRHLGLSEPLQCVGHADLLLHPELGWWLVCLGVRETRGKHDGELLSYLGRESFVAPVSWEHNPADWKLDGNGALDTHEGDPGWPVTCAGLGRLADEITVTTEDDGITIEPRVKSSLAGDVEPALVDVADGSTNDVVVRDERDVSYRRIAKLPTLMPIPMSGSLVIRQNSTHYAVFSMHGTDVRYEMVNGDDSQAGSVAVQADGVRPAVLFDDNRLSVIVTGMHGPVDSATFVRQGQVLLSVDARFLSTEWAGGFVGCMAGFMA
# BAD0428 = target: T2, BAD0428 (Bifidobacterium adolescentis, UniProt A1A0H6); conditions: 10 mM substrate, 50 μg/mL enzyme, 20 mM sodium phosphate pH 6.5, 37 °C, 1 h; product xylose
# T2 construct: gene xynB; full length, N-terminal His-tag (pET28a), no signal peptide, E. coli BL21(DE3), TALON purified
# T2 sequence (A1A0H6 1-543): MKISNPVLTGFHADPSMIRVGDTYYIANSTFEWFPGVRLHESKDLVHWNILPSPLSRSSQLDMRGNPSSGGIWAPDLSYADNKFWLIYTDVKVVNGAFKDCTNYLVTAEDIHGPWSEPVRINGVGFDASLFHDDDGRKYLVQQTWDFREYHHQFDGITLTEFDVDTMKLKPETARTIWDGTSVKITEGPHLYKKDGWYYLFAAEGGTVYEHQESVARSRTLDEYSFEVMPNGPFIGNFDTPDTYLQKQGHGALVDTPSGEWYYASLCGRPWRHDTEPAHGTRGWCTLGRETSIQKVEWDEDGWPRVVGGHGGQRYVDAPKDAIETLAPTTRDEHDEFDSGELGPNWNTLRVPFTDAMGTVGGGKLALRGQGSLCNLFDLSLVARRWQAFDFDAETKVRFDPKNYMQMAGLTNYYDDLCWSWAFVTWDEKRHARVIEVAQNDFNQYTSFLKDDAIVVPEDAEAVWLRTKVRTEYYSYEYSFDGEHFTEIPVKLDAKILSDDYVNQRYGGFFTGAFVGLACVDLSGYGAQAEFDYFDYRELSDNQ
# BAD1527 = target: T3, BAD1527 (Bifidobacterium adolescentis, UniProt A1A3M5); conditions: 10 mM substrate, 50 μg/mL enzyme, 20 mM sodium phosphate pH 6.5, 37 °C, 1 h; weak substrate
# T3 construct: gene xynD; full length, N-terminal His-tag (pET28a), no signal peptide, E. coli BL21(DE3), TALON purified
# T3 sequence (A1A3M5 1-345): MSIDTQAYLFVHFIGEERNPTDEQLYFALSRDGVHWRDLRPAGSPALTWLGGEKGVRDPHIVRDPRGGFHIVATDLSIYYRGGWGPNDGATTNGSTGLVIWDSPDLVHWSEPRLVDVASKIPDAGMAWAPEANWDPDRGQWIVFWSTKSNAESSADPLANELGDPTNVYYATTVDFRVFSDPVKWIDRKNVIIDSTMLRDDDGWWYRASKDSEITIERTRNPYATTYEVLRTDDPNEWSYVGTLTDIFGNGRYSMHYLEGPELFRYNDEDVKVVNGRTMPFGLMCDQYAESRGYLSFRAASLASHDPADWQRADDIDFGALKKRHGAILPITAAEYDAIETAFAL
smiles,measurement,setting,value
"OC1OC[C@@H](O[C@@H]2OC[C@@H](O)[C@H](O[C@@H]3OC[C@@H](O)[C@H](O)[C@H]3O)[C@H]2O)[C@H](O)[C@H]1O (stereo partly drawn) [DX3, 2^3-β-D-xylosyl-xylobiose]",specific activity,BAD0423,BAD0423 showed low activities on X2 and X3 but high activity on DX3
same,specific activity,BAD0428,"specific activity of BAD0423, BAD0428, and BAD1527 on DX3 was determined by HPLC"
same,specific activity,BAD1527,"specific activity of BAD0423, BAD0428, and BAD1527 on DX3 was determined by HPLC"
